Laboratory results reported in patent publication US8916606B2, “Therapeutic compositions and methods for targeted delivery of active agents” (William Marsh Rice University, priority 2009, dated 2014).

Assays:
[1] = Solubility and loading of PTX; assay type: physicochemical
Experimental: The PEG-HCCs were purified by sequential dialysis in DMF and water. This was followed by passage through a PD-10 desalting column to remove any coordinated metals or unbound PEG. […] The particles were water soluble. See Berlin et al. for AFM data.
PEG-HCCs were loaded with PTX by dropwise addition of PTX in methanol (5 mg in 1 mL) to a rapidly stirring solution of PEG-HCCs in water (100 mg/L concentration of core HCCs, 5 mL). Next, the solution was bath-sonicated, concentrated to 3 mL by rotary evaporation (to remove the methanol), and then diluted back to the original volume (5 mL) with water. This provided a translucent solution of PTX non-covalently associated with PEG-HCCs (PTX/PEG-HCCs). […] In other words, it is visually apparent if PTX is precipitating because the solution becomes a milky white color when the PTX is overloaded. Applicants have observed that the maximum loading concentration of PTX in the PEG-HCCs in the experiments performed to date is about 12 mg/mL.

bEnd.3 cells = assay: Antimycin A induced oxidative stress in bEnd.3 cells, DHE flow cytometry (Example 13.1); assay type: cell-based; settings: treatment after Antimycin A
Experimental: Mean fluorescence intensity (indicative of oxidative stress) was measured using as control viable cells of 4 separated experiments treated with Antimycin A (AntA) and stained with dihydroethidine (DHE) (“AntA+DHE”). Results are given as % control (unstained cells) to account for minor differences in DHE concentrations and laser fluctuations.
Accordingly, the next series of experiments employed flow cytometry to assess antioxidant effectiveness of PEG-HCCs and targeted PEG-HCCs in cultured brain endothelial cells (b.End3 cells). For these experiments, bEnd.3 cells were cultured to 50-80% confluence in 6 well plates in 2 mL of culture media. The cells were treated with 10 μL of 2 mM Antimycin A (AntA, shown to induce intracellular superoxide radical production). Five minutes later, 1×PBS, PEG-HCC, psPEG-HCC or super oxide dismutase (SOD) was added. The cells were then incubated at 37° C. for 5 minutes. At that time, either 2 μL of 10 mM DHE or a 50% DMSO solution in 1×PBS (control) was added to the wells. The cells were then incubated for another 30 minutes. Next, the cells were placed on ice, trypsinized, and washed twice. The cells were then, counted and stained with SytoxRed (viability stain). 10,000 cells were analyzed per treatment group using the TXRED channel (DHE) and SytoxRed to assess cell viability.

| solubility in water [1] | SMILES | level of oxidative stress (DHE mean fluorescence intensity) (bEnd.3 cells) |
| --- | --- | --- |
| insoluble in water | CC(=O)O[C@H]1C(=O)[C@@]2(C)[C@H]([C@H](OC(=O)c3ccccc3)[C@]3(O)C[C@H](OC(=O)[C@H](O)[C@@H](NC(=O)c4ccccc4)c4ccccc4)C(C)=C1C3(C)C)[C@]1(OC(C)=O)CO[C@@H]1C[C@@H]2O [PTX, Paclitaxel] | – |
| – | Cc1c(C)c2c(c(C)c1O)CCC(C)(C(=O)O)O2 (centres unmarked) [Trolox] | not effective |
